For 52 compounds, LD50 and GHS category results are on record in the CATMoS acute toxicity set (Mansouri et al. 2021).

Data set [1] can be described thus: rat acute oral toxicity. The conditions noted are these: in vivo. The source says:
[…]The data set underlying the modeling effort for this project was initially compiled by NICEATM and U.S. EPA’s CCTE. Briefly, LD50 data were collected from rat acute oral systemic toxicity tests, including limit tests, ranges/confidence intervals, and discrete LD50 values. The full data set included 21,200 LD50 entries for 15,688 substances. […] Data were reviewed to ensure that LD50 values with obvious errors in the extracted data such as unit conversion errors (e.g., comma and decimal separator misplacements) were either fixed or removed. After this review, 16,209 LD50 values remained. Many of the chemicals represented had multiple LD50 entries, requiring that a single representative value per Chemical Abstracts Service Registry Number (CASRN) identifier be defined to facilitate modeling efforts. Based on ATWG feedback and to define the representative LD50 as a protective value while accounting for the distribution across multiple LD50s, the median of the lowest quartile was computed using only discrete LD50 values (omitting limit test data and range and confidence interval data). A detailed summary of the data compilation is available online on the NICEATM webpage dedicated to the collaborative modeling project (NTP 2020).
[…][…] For categorical designations, limit test and range/confidence interval LD50 data were integrated wherever possible. As such, the number of chemicals with end point values/calls varies across the modeling end points (Table 3) based on whether chemicals had representative LD50 values and/or other data. If a chemical had both, the representative value was used to determine categorical calls rather than limit test data. Some data were useable only for certain end points and categories depending on the thresholds. For example, ranges that spanned multiple hazard categories were considered only for the binary (very toxic/nontoxic) end points and omitted from rendering a determination for hazard category assignment.
[…]The final data set comprising 11,992 chemicals was split into training and evaluation sets […], respectively. This process was performed semirandomly by ordering chemicals based on the five end points (categorical and continuous LD50 values) and partitioning every fourth record into the evaluation set accordingly. This approach was taken to ensure an equivalent distribution of the LD50 values and the different hazard categories between the training and the evaluation sets without supervised sampling of the chemicals based on structures (Figure 1A). The sources of the chemical structures were also kept equivalent between the two sets, with chemical structures obtained from DSSTox, being the highest quality, representing over 75% of each set (Figure 1B).

Data set [2] is described as follows: GHS categories as the set defines them, by LD50: 1 up to 5, 2 up to 50, 3 up to 300, 4 up to 2000, 5 above 2000 mg/kg. Particulars: rat; in vivo; po.

With `O=CC=O`, the median lethal dose (LD50) in data set [1] was determined as 481 mg/kg.

Turning to `C=CCO`, in data set [1], the LD50 was determined as 64 mg/kg.

Take `Cc1ccc([N+](=O)[O-])c(C)c1`: the LD50 in data set [1] stood at 1690 mg/kg.

In data set [1], `O=C1OC(O)C(C(Cl)Cl)=C1Cl` (configuration not stated) came in with an LD50 of 128 mg/kg.

On to `Cc1cccc(C)c1N`, for which, in data set [1], the median lethal dose (LD50) stood at 840 mg/kg.

`Oc1c(Br)cc(Br)cc1Br` gave an LD50 in data set [1] of 1490 mg/kg.

The compound `CC1=C(C(=O)Nc2ccccc2)SCCO1` displayed an LD50 in data set [1] of 430 mg/kg.

In turn, `NNC(N)=S` came in with an LD50 in data set [1] of 9.16 mg/kg.

For the compound `CCOC(=O)c1cn2nc(OP(=S)(OCC)OCC)cc2nc1C`, the LD50 in data set [1] amounted to 151 mg/kg.

On to `COCC(C)O` (configuration not stated), for which, in data set [1], the LD50 turned out to be 3740 mg/kg.

As to `O=C(Nc1ccccc1)Nc1ccnc(Cl)c1`, in data set [1], the LD50 was 4900 mg/kg.

Take `O=C1c2ccccc2C(=O)C1C(=O)C(c1ccccc1)c1ccc(Cl)cc1` (configuration not stated): the 50% lethal dose (LD50) in data set [1] came to 2.1 mg/kg.

`Nc1c(Cl)c(Cl)nc(C(=O)O)c1Cl`: the LD50 in data set [1] was 686 mg/kg.

For `O=Cc1ccccc1`, the LD50 in data set [1] was 1300 mg/kg.

On to `O=C(O)c1ccc(C(=O)O)cc1`, for which, in data set [1], the 50% lethal dose (LD50) worked out at 1960 mg/kg.

Turning to `O=[N+]([O-])C(Br)(CO)CO`, the 50% lethal dose (LD50) in data set [1] turned out to be 180 mg/kg.

In turn, `O=C(O)CBr` displayed a 50% lethal dose (LD50) in data set [1] of 50 mg/kg.

Take `CCOCCO`: the LD50 in data set [1] came out at 1520 mg/kg.

In data set [1], `CC=C1CC2C=CC1C2` (configuration not stated) displayed an LD50 of 2280 mg/kg.

`O=C=NC1CCC(CC2CCC(N=C=O)CC2)CC1` (configuration not stated) displayed an LD50 in data set [1] of 1060 mg/kg.

Consider `CC(C)=CCC/C(C)=C/CO`, for which the LD50 in data set [1] was determined as 3600 mg/kg.

`C=CC(=O)NC(C)(C)CS(=O)(=O)O` returned an LD50 in data set [1] of 1830 mg/kg.

As to `C=CC1CC=CCC1` (configuration not stated), the median lethal dose (LD50) in data set [1] amounted to 1600 mg/kg.

In the case of `COC(=O)C(N)Cc1cnc[nH]1` (configuration not stated), in data set [1], the 50% lethal dose (LD50) is 1370 mg/kg.

The compound `CC1=CC(=O)NS(=O)(=O)O1` had a median lethal dose (LD50) in data set [1] of 5440 mg/kg.

Compound `C#CCOS(=O)OC1CCCCC1Oc1ccc(C(C)(C)C)cc1` (configuration not stated) yielded an LD50 in data set [1] of 2200 mg/kg.

In data set [1], `CC(C)(O)C#N` displayed a 50% lethal dose (LD50) of 18.6 mg/kg.

The compound `Brc1ccc(N/C(=N/C2CCCCC2)c2ccccc2)cc1` came in with a GHS category in data set [2] of 5.

`Brc1nc[nH]c1Br` registered a GHS category in data set [2] of 4.

Compound `CS(=O)(=O)c1ccc(C(=O)C2C(=O)CCCC2=O)c(Cl)c1COCC(F)(F)F` came in with a GHS category in data set [2] of 5.

`CC(C)(C)NC(=O)[C@@H]1CN(Cc2cccnc2)CCN1C[C@@H](O)C[C@@H](Cc1ccccc1)C(=O)N[C@H]1c2ccccc2C[C@H]1O` gave a GHS category in data set [2] of 5.

In data set [2], `CCOP(=S)(Oc1cnc(C(C)(C)C)nc1)OC(C)C` (configuration not stated) registered a GHS category of 1.

Consider `CC/C=C\CCOC(=O)C(C)C`, for which the GHS category in data set [2] worked out at 5.

In the case of `Nc1cc(C(=O)NCC(O)CO)cc(C(=O)NCC(O)CO)c1` (configuration not stated), the GHS category in data set [2] is given as 5.

`Cc1cccc2ncc(C(=O)NCC(C)(C)C)c(=O)n12` yielded a GHS category in data set [2] of 3.

In data set [2], `CCCCC(=O)N(Cc1ccc(-c2ccccc2-c2nnn[nH]2)cc1)[C@@H](C(=O)O)C(C)C` displayed a GHS category of 5.

Regarding `C=CCN1C(=O)CCc2c(OCC(O)CN3CCC(Cc4ccccc4)CC3)cccc21` (configuration not stated), in data set [2], the GHS category was 4.

On to `O=C1CC(=O)NC(=S)N1`, for which the GHS category in data set [2] was determined as 5.

As for `CCCCCCCCCCC[C@@H]1C[C@H](O)[C@H](CCCCCC)C(=O)O1`, the GHS category in data set [2] is recorded as 5.

`Cn1c(=O)n(-c2ccccc2)c2cc(Cl)ccc21`: the GHS category in data set [2] amounted to 4.

In turn, `Cc1ccc(NC(=O)N(C)C)cc1NC(=O)N(C)C` showed a GHS category in data set [2] of 5.

As for `CCCCCCCCCCCCCCCCCC(=O)NP(=O)(OC)SC` (configuration not stated), in data set [2], the GHS category stood at 3.

Consider `CCC(Oc1ccc(C(C)(C)CC)cc1C(C)(C)CC)C(=O)O` (configuration not stated), for which the GHS category in data set [2] was 5.

`CCSc1nc(N)c2c(C)coc2n1` returned a GHS category in data set [2] of 5.

The compound `C[C@]12CC[C@H]3[C@@H](CCC4=CC(=O)C=C[C@@]43C)[C@@H]1CC[C@H]2O` came in with a GHS category in data set [2] of 5.

With `O=S(=O)(O)c1cc(-n2ncc(-c3ccccc3)n2)ccc1C=Cc1ccc(-n2ncc(-c3ccccc3)n2)cc1S(=O)(=O)O`, the GHS category in data set [2] is on record as 5.

`CC1=CC[C@H](CC=O)C1(C)C` showed a GHS category in data set [2] of 5.

`CCCCCOC1OC(C)C(O)C(O)C1O` (configuration not stated) came in with a GHS category in data set [2] of 5.

As to `Clc1ccc(N/C(=N/C2CCCCC2)c2ccccc2)c(Cl)c1`, the GHS category in data set [2] came out at 5.

For `NS(=O)(=O)c1ccccc1C(F)(F)F`, the GHS category in data set [2] is reported as 4.

As to `NCC[C@H](O)C(=O)N[C@@H]1C[C@H](N)[C@@H](O[C@H]2O[C@H](CN)CC[C@H]2N)[C@H](O)[C@H]1O[C@H]1O[C@H](CO)[C@@H](O)[C@H](N)[C@H]1O`, the GHS category in data set [2] stood at 5.

For `Cc1ccc(C(=O)COc2c(C(=O)c3ccc(Cl)c(C)c3Cl)c(C)nn2C)cc1`, in data set [2], the GHS category is on record as 5.
